Measurements published in publication PMC6509188, “Enterococcus faecalis Encodes an Atypical Auxiliary Acyl Carrier Protein Required for Efficient Regulation of Fatty Acid Synthesis by Exogenous Fatty Acids” (mBio, 2019).

Assays:
Assay type in all cases: biochemical
[1] = target: T1, AcpS (Enterococcus faecalis, UniProt Q820V0); test: conversion of apo-ACP to holo-ACP, PAGE; settings: acceptor apo-AcpA or apo-AcpB of E. faecalis; Mg2+, Tris-HCl pH 8.0, 37 C
T1 construct: N-terminal hexahistidine tag, expressed from pZL311, nickel-chelate purified
T1 sequence (Q820V0 1-117): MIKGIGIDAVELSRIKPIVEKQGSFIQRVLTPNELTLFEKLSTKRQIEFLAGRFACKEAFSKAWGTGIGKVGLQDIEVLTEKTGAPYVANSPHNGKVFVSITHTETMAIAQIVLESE

[2] = target: T2, PlsX (Enterococcus faecalis, UniProt Q82ZE8); test: acyl transfer to holo-ACP, urea-PAGE; settings: acyl acceptor holo-AcpB of E. faecalis; 0.05 uM PlsX, 0.75 mM Mg2+, 0.5 mM DTT, 0.1 M HEPES pH 7.0, 37 C
T2 construct: N-terminal hexahistidine tag, expressed from pZL391 in E. coli, purified
T2 sequence (Q82ZE8 1-333): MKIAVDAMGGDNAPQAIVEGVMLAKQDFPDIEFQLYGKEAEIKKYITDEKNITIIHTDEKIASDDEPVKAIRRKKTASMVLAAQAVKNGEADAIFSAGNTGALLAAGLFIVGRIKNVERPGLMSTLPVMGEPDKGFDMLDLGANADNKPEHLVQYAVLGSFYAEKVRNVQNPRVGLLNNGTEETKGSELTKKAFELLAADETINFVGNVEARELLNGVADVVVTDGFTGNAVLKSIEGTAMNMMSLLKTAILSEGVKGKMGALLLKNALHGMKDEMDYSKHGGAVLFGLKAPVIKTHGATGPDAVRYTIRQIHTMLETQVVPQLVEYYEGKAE

[3] = target: T3, AasS (Vibrio harveyi, UniProt Q00IB3); test: acyl-ACP synthesis, urea-PAGE; settings: acceptor holo-AcpA or holo-AcpB of E. faecalis; 2 mM ATP, 200 uM acid, 37 C
T3 construct: N-terminal hexahistidine tag, expressed from pYFJ84, nickel-chelate purified; used to prepare acyl-ACPs
T3 sequence (Q00IB3 entry or part of it): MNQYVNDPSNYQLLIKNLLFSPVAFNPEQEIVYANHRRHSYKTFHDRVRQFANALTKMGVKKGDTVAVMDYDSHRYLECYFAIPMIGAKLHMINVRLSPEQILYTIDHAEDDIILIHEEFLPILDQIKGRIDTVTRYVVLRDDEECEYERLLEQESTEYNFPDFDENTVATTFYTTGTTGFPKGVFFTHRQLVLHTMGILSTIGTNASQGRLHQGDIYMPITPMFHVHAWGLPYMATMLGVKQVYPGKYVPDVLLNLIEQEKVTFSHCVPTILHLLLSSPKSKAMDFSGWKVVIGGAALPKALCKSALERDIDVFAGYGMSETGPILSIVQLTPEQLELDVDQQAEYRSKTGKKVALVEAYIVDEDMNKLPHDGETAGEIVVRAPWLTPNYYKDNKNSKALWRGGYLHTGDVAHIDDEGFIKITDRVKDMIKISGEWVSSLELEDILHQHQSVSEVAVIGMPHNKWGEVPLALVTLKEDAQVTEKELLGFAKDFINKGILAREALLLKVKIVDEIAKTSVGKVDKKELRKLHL

CC(C)(COP(=O)(O)OP(=O)(O)OC[C@H]1O[C@@H](n2cnc3c(N)ncnc32)[C@H](O)[C@@H]1OP(=O)(O)O)[C@@H](O)C(=O)NCCC(=O)NCCS [CoA]
conversion of apo-ACP to holo-ACP, PAGE [1]: treated with E. faecalis AcpS and coenzyme A (CoA)

CCCCCCCCCCCCCCCCCC(=O)OP(=O)(O)O [stearoyl-phosphate]
acyl transfer to holo-ACP, urea-PAGE [2]: AcpB was fully converted into acyl-AcpB when stearoyl-phosphate (C18:0-PO4) or oleyl-phosphate (C18:1-PO4)

CCCCCCC/C=C/C(=O)O [trans-2-decenoic acid]
acyl-ACP synthesis, urea-PAGE [3]: Incubation of the holo proteins with AasS, ATP, and trans-2-decenoic acid resulted in trans-2-decenoyl-AcpA
